Data reported in article PMC11575720 (RSC Advances, 2024).

Experiments:
L. major DHFR = L. major DHFR (Leishmania major, UniProt P07382); assay: L. major DHFR; type: biochemical
L. major PTR1 = molecular target: T1, L. major PTR1 (Leishmania major, UniProt Q01782); assay: L. major PTR1 enzyme inhibition assay; type: biochemical
T1 sequence (Q01782 1-288): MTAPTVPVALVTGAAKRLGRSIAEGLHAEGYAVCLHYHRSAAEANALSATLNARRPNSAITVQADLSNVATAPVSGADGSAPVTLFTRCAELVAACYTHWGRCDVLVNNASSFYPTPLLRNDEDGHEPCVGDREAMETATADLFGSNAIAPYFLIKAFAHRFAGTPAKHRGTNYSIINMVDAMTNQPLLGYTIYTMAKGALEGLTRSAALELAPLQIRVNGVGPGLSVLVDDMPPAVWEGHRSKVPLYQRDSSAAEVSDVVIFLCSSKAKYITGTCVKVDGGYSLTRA

Sequence of L. major DHFR (P07382 whole entry): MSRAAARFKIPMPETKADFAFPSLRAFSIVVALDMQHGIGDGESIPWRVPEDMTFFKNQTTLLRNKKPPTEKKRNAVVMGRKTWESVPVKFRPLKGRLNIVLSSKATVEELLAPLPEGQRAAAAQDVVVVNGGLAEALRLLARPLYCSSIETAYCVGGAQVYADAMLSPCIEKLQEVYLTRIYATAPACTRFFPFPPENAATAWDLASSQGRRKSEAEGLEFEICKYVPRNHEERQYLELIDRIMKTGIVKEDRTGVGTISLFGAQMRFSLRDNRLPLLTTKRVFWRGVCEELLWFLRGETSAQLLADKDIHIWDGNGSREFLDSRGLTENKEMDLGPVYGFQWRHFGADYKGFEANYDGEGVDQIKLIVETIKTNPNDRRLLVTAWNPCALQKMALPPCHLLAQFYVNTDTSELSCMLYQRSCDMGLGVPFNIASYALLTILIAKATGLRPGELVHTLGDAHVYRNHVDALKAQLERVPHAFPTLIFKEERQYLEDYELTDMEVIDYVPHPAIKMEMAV

| IC50 (L. major DHFR) [µM] | IC50 (L. major PTR1) [µM] | SMILES |
| --- | --- | --- |
| 8.09 ± 0.01 | 0.58 ± 0.05 | O=C(NC(=S)Nc1cccc(O)c1)c1cccs1 [Compound 4g, N-((3-Hydroxyphenyl)carbamothioyl)thiophene-2-carboxamide] |
| 2.63 ± 0.01 | 15.86 ± 0.01 | Cc1nc(NC(=S)NCc2ccco2)nc(-c2ccccc2)c1C(=O)N1CCC(C(=O)O)CC1 [Compound 20a, 1-(2-(3-(Furan-2-ylmethyl)thioureido)-4-methyl-6-phenylpyrimidine-5-carbonyl)piperidine-4-carboxylic acid] |
| 1.14 ± 0.01 | 19.89 ± 0.01 | Cc1nc(NC(=S)NCc2cccs2)nc(-c2ccccc2)c1C(=O)N1CCC(C(=O)O)CC1 [Compound 20b, 1-(4-Methyl-6-phenyl-2-(3-(thiophen-2-ylmethyl)thioureido)pyrimidine-5-carbonyl)piperidine-4-carboxylic acid] |
